The record followed here is publication PMC5147005 (The Journal of Cell Biology, 2016).

Data set [1] addresses T1, MFN1-MGD (minimal GTPase domain of human MFN1) (Homo sapiens, UniProt Q8IWA4, DEL365-693).
T1 sequence (Q8IWA4 1-364): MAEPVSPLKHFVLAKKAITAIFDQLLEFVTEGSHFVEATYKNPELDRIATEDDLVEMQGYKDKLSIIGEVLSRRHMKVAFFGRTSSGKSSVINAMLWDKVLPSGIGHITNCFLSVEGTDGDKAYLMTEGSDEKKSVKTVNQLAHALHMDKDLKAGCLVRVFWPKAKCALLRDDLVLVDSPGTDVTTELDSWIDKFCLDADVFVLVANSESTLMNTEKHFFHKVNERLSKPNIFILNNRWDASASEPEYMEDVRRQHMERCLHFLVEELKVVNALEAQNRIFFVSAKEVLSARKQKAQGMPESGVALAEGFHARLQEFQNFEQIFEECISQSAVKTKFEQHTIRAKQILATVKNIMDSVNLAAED
T1 sequence (Q8IWA4 694-741): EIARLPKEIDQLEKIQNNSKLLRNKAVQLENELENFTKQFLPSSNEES
Briefly: isothermal titration calorimetry. Format: binding.

Data set [2] concerns the molecule itself. The experiment in a line: AUC.

The molecule `Nc1nc2c(ncn2[C@@H]2O[C@H](COP(=O)(O)OP(=O)(O)O)[C@@H](O)[C@H]2O)c(=O)[nH]1` [GDP] gave a Kd in data set [1] of 91.7 µM.

B1: human MFN1 minimal GTPase domain (MGD), wild type (domain or fragment)
chain: MAEPVSPLKHFVLAKKAITAIFDQLLEFVTEGSHFVEATYKNPELDRIATEDDLVEMQGYKDKLSIIGEVLSRRHMKVAFFGRTSSGKSSVINAMLWDKVLPSGIGHITNCFLSVEGTDGDKAYLMTEGSDEKKSVKTVNQLAHALHMDKDLKAGCLVRVFWPKAKCALLRDDLVLVDSPGTDVTTELDSWIDKFCLDADVFVLVANSESTLMNTEKHFFHKVNERLSKPNIFILNNRWDASASEPEYMEDVRRQHMERCLHFLVEELKVVNALEAQNRIFFVSAKEVLSARKQKAQGMPESGVALAEGFHARLQEFQNFEQIFEECISQSAVKTKFEQHTIRAKQILATVKNIMDSVNLAAEDGSGSGSGGSEIARLPKEIDQLEKIQNNSKLLRNKAVQLENELENFTKQFLPSSNEES
For the molecule B1, the “stoichiometry N” value in data set [2] was found to be 2.
